For one data set, the system named is CYP4503A4. Kind of data set: CYP4503A4 metabolic induction (mRNA expression) in human cryopreserved platable hepatocytes. The format is in vitro ADME. As to conditions: 10 μM test compound, two days treatment, mRNA by QuantiGene Plex 2.0. The method, then: In Vitro Evaluation of Test Compounds for CYP4503A4 Metabolic Induction Using Human Liver Hepatocytes.
CYP induction assessment was performed using human cryopreserved platable hepatocytes. Test compound was assessed at three or six different concentrations in duplicate.
A sandwich culture of platable cryopreserved hepatocytes was used with one day recovery period after plating. Assessment of cell morphology and confluency was performed using a phase-contrast microscope for representative wells.
The plated hepatocyte cell monolayers were treated with test compound, negative and positive controls for two days changing medium every 24 hours. On the fourth day, assessment of cell morphology and confluency was repeated to ensure cell monolayer integrity. Assessment of cell morphology and confluency was performed using a phase-contrast microscope for representative wells.
Cell monolayers were assessed for test compound cytotoxicity by an adenosine triphosphate (ATP) content assay in a separate plate.
Expression levels of mRNA for CYP1A2, CYP2B6, and CYP3A4 were evaluated by the QuantiGene® Plex 2.0 methodology.

In a further data set the target is P2X7 receptor (Homo sapiens (Human), UniProt Q99572). Kind of data set: Human P2X7 channel calcium-influx assay (Fluo-8 NW, FLIPR TETRA, Bz-ATP stimulation). The conditions noted are these: HEK-293 cells stably transfected with P2X7 receptor, Low Divalent Cation Assay Buffer, read-out: hP2X7 IC50. The format is cell-based. The procedure, abridged:
(§1)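 HEK-293 cells stably expressing human or mouse P2X7, preloaded with Fluo-8 NW dye for 1 h at RT. Compounds added, Bz-ATP-evoked Ca2+ influx followed as fluorescence kinetics over 5 min on FLIPR TETRA; A438079 served as reference antagonist.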

In another data set the target is mP2X7 (Mus musculus (Mouse), UniProt Q9Z1M0). The data set can be described thus: mP2X7 channel calcium-influx assay (Fluo-8 NW, FLIPR TETRA, Bz-ATP stimulation). The data set is classed as cell-based. The procedure, abridged: as §1
mP2X7, sequence (Q9Z1M0 whole entry): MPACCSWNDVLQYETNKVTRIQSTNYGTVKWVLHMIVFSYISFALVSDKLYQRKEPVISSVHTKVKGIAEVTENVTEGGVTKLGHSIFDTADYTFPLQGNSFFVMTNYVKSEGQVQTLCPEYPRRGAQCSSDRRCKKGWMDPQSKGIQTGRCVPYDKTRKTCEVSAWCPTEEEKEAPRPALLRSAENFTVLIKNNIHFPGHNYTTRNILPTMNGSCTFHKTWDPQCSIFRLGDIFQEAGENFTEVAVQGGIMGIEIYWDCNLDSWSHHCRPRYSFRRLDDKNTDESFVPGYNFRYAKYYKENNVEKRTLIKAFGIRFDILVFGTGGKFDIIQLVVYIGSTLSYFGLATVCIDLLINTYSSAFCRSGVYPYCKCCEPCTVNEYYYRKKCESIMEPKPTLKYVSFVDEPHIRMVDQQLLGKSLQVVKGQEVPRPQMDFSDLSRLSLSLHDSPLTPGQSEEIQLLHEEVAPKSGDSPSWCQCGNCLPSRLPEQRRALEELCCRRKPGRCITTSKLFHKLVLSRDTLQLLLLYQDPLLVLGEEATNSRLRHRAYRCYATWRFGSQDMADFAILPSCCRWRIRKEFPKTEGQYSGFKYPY

P2X7 receptor, sequence (Q99572 whole entry): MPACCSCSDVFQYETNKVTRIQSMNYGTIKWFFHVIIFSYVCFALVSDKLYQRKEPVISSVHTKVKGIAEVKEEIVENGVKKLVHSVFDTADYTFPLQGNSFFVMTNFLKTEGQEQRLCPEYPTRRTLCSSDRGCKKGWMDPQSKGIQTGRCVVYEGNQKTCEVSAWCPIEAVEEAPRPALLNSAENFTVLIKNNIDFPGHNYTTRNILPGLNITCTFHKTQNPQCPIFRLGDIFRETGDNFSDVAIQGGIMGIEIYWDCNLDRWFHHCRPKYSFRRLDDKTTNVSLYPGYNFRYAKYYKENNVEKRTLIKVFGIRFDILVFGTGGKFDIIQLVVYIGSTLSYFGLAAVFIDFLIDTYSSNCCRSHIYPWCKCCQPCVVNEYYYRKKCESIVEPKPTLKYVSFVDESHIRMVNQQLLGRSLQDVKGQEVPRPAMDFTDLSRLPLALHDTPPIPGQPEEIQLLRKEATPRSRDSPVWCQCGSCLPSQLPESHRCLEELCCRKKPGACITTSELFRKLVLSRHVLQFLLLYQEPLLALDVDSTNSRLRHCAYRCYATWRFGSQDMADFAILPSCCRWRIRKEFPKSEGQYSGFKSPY

As a reminder, the IC50 is the concentration that inhibits the measured activity by half. For `Cc1cc(OC2CCN(C(CNC(=O)c3c(F)cccc3Cl)c3scnc3C(F)F)CC2)ccn1` (stereo not drawn) [Example 73, 2-Chloro-N-{2-[4-(difluoromethyl)-1,3-thiazol-5-yl]-2-{4-[(2-methylpyridin-4-yl)oxy]piperidin-1-yl}ethyl}-6-fluorobenzamide], the “CYP4503A4 mRNA fold increase at 10 μM” value with CYP4503A4 is listed as 2.4 fold. Also, the results for the IC50 at P2X7 receptor and at mP2X7 were 64.9 nM and 70.9 nM, respectively.

Regarding `Cc1noc(C)c1COC1CCN(C(CNC(=O)c2c(F)cccc2Cl)c2scnc2C(F)F)CC1` (stereo not drawn) [Example 9, 2-chloro-N-{2-[4-(difluoromethyl)-1,3-thiazol-5-yl]-2-{4-[(dimethyl-1,2-oxazol-4-yl)methoxy]piperidin-1-yl}ethyl}-6-fluorobenzamide], the “CYP4503A4 mRNA fold increase at 10 μM” value in the data set with CYP4503A4 amounted to 2.6 fold. The values for the IC50 at P2X7 receptor and at mP2X7 were 64 nM and 53.9 nM, respectively.

`O=C(NCC(c1scnc1C(F)F)N1CCC(Oc2nc(C3CC3)ns2)CC1)c1c(F)cccc1Cl` (stereo not drawn) [Example 13, 2-Chloro-N-(2-{4-[(3-cyclopropyl-1,2,4-thiadiazol-5-yl)oxy]piperidin-1-yl}-2-[4-(difluoromethyl)-1,3-thiazol-5-yl]ethyl)-6-fluorobenzamide]: the “CYP4503A4 mRNA fold increase at 10 μM” value in the data set with CYP4503A4 was 9.7 fold. In addition, the IC50 on P2X7 receptor stood at 19.2 nM; at mP2X7, 33.4 nM.

Turning to `O=C(NCC(c1scnc1C(F)F)N1CCC(Oc2cccnc2)CC1)c1c(F)cccc1Cl` (stereo not drawn) [Example 2, 2-chloro-N-{2-[4-(difluoromethyl)-1,3-thiazol-5-yl]-2-[4-(pyridin-3-yloxy)piperidin-1-yl]ethyl}-6-fluorobenzamide], the “CYP4503A4 mRNA fold increase at 10 μM” value in the data set on CYP4503A4 was determined as 4.8 fold. Also, the figures for the IC50 on P2X7 receptor and on mP2X7 were 35.9 nM and 36.9 nM, respectively.

Consider `Cc1nsc(OCC2CCN(C(CNC(=O)c3c(F)cccc3Cl)c3scnc3C(F)F)CC2)n1` (stereo not drawn) [Example 85, 2-Chloro-N-{2-[4-(difluoromethyl)-1,3-thiazol-5-yl]-2-(4-{[(3-methyl-1,2,4-thiadiazol-5-yl)oxy]methyl}piperidin-1-yl)ethyl}-6-fluorobenzamide], for which the “CYP4503A4 mRNA fold increase at 10 μM” value in the data set on CYP4503A4 was 9.7 fold. The values for the IC50 at P2X7 receptor and at mP2X7 were 32.4 nM and 68.7 nM, respectively.

`O=C(NCC(c1scnc1C(F)F)N1CCC(COc2nc3ccccc3s2)CC1)c1c(F)cccc1Cl` (stereo not drawn) [Example 93, N-(2-{4-[(1,3-Benzothiazol-2-yloxy)methyl]piperidin-1-yl}-2-[4-(difluoromethyl)-1,3-thiazol-5-yl]ethyl)-2-chloro-6-fluorobenzamide]: in the data set with CYP4503A4, the “CYP4503A4 mRNA fold increase at 10 μM” value worked out at 6.5 fold. Besides, the IC50 on P2X7 receptor is 43.6 nM; on mP2X7, 22.7 nM.

For the molecule `O=C(NCC(c1scnc1C(F)F)N1CCC(COc2cccc(F)n2)CC1)c1c(F)cccc1Cl` (stereo not drawn) [Example 124, 2-Chloro-N-{2-[4-(difluoromethyl)-1,3-thiazol-5-yl]-2-(4-{[(6-fluoropyridin-2-yl)oxy]methyl}piperidin-1-yl)ethyl}-6-fluorobenzamide], the “CYP4503A4 mRNA fold increase at 10 μM” value in the data set with CYP4503A4 amounted to 6.9 fold. Moreover, the IC50 is 18.1 nM at P2X7 receptor and 18.5 nM at mP2X7.

As to `N#Cc1cncc(OCC2CCN(C(CNC(=O)c3c(F)cccc3Cl)c3scnc3C(F)F)CC2)c1` (stereo not drawn) [Example 91, 2-Chloro-N-[2-(4-{[(5-cyanopyridin-3-yl)oxy]methyl}piperidin-1-yl)-2-[4-(difluoromethyl)-1,3-thiazol-5-yl]ethyl]-6-fluorobenzamide], the “CYP4503A4 mRNA fold increase at 10 μM” value in the data set on CYP4503A4 was found to be 7.4 fold. In addition, the half-maximal inhibitory concentration (IC50) on P2X7 receptor amounted to 39.5 nM; on mP2X7, 38.9 nM.

In the case of `O=C(NCC(c1scnc1C(F)F)N1CCC(Oc2ccnc(F)c2)CC1)c1c(F)cccc1Cl` (stereo not drawn) [Example 80, 2-Chloro-N-{2-[4-(difluoromethyl)-1,3-thiazol-5-yl]-2-{4-[(2-fluoropyridin-4-yl)oxy]piperidin-1-yl}ethyl}-6-fluorobenzamide], the “CYP4503A4 mRNA fold increase at 10 μM” value in the data set with CYP4503A4 turned out to be 6.0 fold. For the same molecule, the values for the IC50 on P2X7 receptor and at mP2X7 were 20.3 nM and 36.9 nM, respectively.

Regarding `N#Cc1cc(OC2CCN(C(CNC(=O)c3c(F)cccc3Cl)c3scnc3C(F)F)CC2)ccn1` (stereo not drawn) [Example 127, 2-Chloro-N-(2-{4-[(2-cyanopyridin-4-yl)oxy]piperidin-1-yl}-2-[4-(difluoromethyl)-1,3-thiazol-5-yl]ethyl)-6-fluorobenzamide], in the data set on CYP4503A4, the “CYP4503A4 mRNA fold increase at 10 μM” value was 6.3 fold. Moreover, the IC50 at P2X7 receptor stood at 49 nM; at mP2X7 it was 61.7 nM.

For the molecule `O=C(NCC(c1scnc1C(F)F)N1CCC(Oc2ccncn2)CC1)c1c(F)cccc1Cl` (stereo not drawn) [Example 78, 2-Chloro-N-{2-[4-(difluoromethyl)-1,3-thiazol-5-yl]-2-[4-(pyrimidin-4-yloxy)piperidin-1-yl]ethyl}-6-fluorobenzamide], the “CYP4503A4 mRNA fold increase at 10 μM” value in the data set on CYP4503A4 was found to be 3.6 fold. The IC50 at P2X7 receptor came out at 73.1 nM; at mP2X7, 180 nM.

In the case of `O=C(NCC(c1scnc1C(F)F)N1CCC(Oc2ccnc3cccnc23)CC1)c1c(F)cccc1Cl` (stereo not drawn) [Example 48, 2-Chloro-N-{2-[4-(difluoromethyl)-1,3-thiazol-5-yl]-2-[4-(1,5-naphthyridin-4-yloxy)piperidin-1-yl]ethyl}-6-fluorobenzamide], the “CYP4503A4 mRNA fold increase at 10 μM” value in the data set on CYP4503A4 was 7.6 fold. The values for the IC50 on P2X7 receptor and on mP2X7 were 74.9 nM and 36 nM, respectively.

As for `O=C(NCC(c1scnc1C(F)F)N1CCC(Oc2cc(F)ccn2)CC1)c1c(F)cccc1Cl` (stereo not drawn) [Example 81, 2-chloro-N-{2-[4-(difluoromethyl)-1,3-thiazol-5-yl]-2-{4-[(4-fluoropyridin-2-yl)oxy]piperidin-1-yl}ethyl}-6-fluorobenzamide], in the data set on CYP4503A4, the “CYP4503A4 mRNA fold increase at 10 μM” value amounted to 4.8 fold. Besides, the IC50 at P2X7 receptor amounted to 20.1 nM; at mP2X7, 38.1 nM.

The record behind these values is US20240034737A1, “Heterocyclic Derivatives as P2X7 Receptor Antagonists” (BREYE THERAPEUTICS APS, priority 2020, published 2024).
